Consider one molecule from BindingDB's records for doi:10.1016/j.ejmech.2018.06.052 (Cnrs/University of Strasbourg, 2018).

A word on the pEC50: it is the negative decadic logarithm of the EC50, by convention in mol/L.

The assay in a line: Induction of PHB2-mediated melanogenesis in mouse Melan-a cells assessed as pigmentation after 72 hrs.

pEC50: −log10 of the molar value.

For `NCCOCCOCCNc1nc(NCc2cccc(F)c2)nc(Oc2c(F)c(F)c(F)c(F)c2F)n1`, the pEC50 was 5.60.
